Data from patent US10329282B2, “Rho-associated protein kinase inhibitor, pharmaceutical composition comprising the same, as well as preparation method and use thereof” (Beijing Tide Pharmaceutical Co., Ltd., priority 2017, dated 2019).

Biological target: ROCK2 (Homo sapiens (Human), UniProt O75116)
Assay: ROCK2 kinase IC50 assay (CISBIO HTRF KinEASE-STK S2 kit)
Type: biochemical
Conditions: ROCK2 from Carna Biosciences, 2 h incubation at room temperature
Procedure, shortened: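 ROCK2 reaction with STK-S2 substrate and ATP (5× working solutions 1.5 μM each), 2 h at room temperature; 9-point compound dilutions from 10000 nM. HTRF 665/615 emission ratio gave % inhibition versus kinase and no-kinase controls; IC50 by curve fit.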

ROCK2, sequence (O75116 1-553): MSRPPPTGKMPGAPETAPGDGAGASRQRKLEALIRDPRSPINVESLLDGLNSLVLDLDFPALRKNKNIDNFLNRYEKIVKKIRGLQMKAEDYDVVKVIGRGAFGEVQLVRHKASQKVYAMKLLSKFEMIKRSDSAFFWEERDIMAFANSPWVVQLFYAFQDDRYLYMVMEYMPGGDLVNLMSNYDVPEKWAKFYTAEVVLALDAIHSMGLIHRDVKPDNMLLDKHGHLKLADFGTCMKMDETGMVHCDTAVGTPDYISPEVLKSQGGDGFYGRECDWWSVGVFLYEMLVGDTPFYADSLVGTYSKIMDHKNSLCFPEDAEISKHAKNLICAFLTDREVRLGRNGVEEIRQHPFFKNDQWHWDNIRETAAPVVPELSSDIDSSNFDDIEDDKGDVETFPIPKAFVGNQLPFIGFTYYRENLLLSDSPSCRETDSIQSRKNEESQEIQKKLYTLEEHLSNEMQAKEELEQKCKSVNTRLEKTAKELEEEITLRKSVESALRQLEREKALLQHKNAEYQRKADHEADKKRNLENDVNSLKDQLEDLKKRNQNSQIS

Row | Compound | IC50
1 | CC(C)NC(=O)c1ccc2cc(-c3nccc(Nc4ccc5[nH]ncc5c4)n3)sc2c1 [TDI01106, 2-(4-((1H-indazol-5-yl)amino)pyrimidin-2-yl)-N-isopropylbenzo[b]thiophene-6-carboxamide] | 112 nM
2 | O=C(NC1CCOC1)c1cc2ccc(-c3nccc(Nc4ccc(-c5cn[nH]c5)cc4)n3)cc2[nH]1 (centres unmarked) [TDI01337, 6-(4-((4-(1H-pyrazol-4-yl)phenyl)amino)pyrimidin-2-yl)-N-(tetrahydrofuran-3-yl)-1H-indole-2-carboxamide] | 121 nM
3 | O=C(Nc1ccncc1)c1cc2ccc(-c3nccc(Nc4ccc5[nH]ncc5c4)n3)cc2[nH]1 [TDI01153, 6-(4-((1H-indazol-5-yl)amino)pyrimidin-2-yl)-N-(pyridin-4-yl)-1H-indole-2-carboxamide] | 16 nM
4 | O=C(Nc1nncs1)c1cc2ccc(-c3nccc(Nc4ccc5[nH]ncc5c4)n3)cc2[nH]1 [TDI01247, 6-(4-((1H-indazol-5-yl)amino)pyrimidin-2-yl)-N-(1,3,4-thiadiazol-2-yl)-1H-indole-2-carboxamide] | 134 nM
5 | Cn1cc(NC(=O)c2cc3ccc(-c4nccc(Nc5ccc6[nH]ncc6c5)n4)cc3[nH]2)cn1 [TDI01134, 6-(4-((1H-indazol-5-yl)amino)pyrimidin-2-yl)-N-(1-methyl-1H-pyrazol-4-yl)-1H-indole-2-carboxamide] | 62 nM
6 | CN1CCC(NC(=O)c2cc3ccc(-c4nccc(Nc5ccc6[nH]ncc6c5)n4)cc3s2)CC1 [TDI01114, 6-(4-((1H-indazol-5-yl)amino)pyrimidin-2-yl)-N-(1-methylpiperidin-4-yl)benzo[b]thiophene-2-carboxamide] | 157 nM
7 | N#Cc1cnccc1NC(=O)c1cc2ccc(-c3nccc(Nc4ccc(-c5cn[nH]c5)cc4)n3)cc2[nH]1 [TDI01829B] | 82 nM

Results, then the compound that gave them:

Row | IC50 | Compound
8 | 463 nM | CC(C)OC(=O)c1cc2ccc(-c3nccc(Nc4ccc(-c5cn[nH]c5)cc4)n3)cc2[nH]1 [TDI01299, isopropyl 6-(4-((4-(1H-pyrazol-4-yl)phenyl)amino)pyrimidin-2-yl)-1H-indole-2-carboxylate]
9 | 305 nM | CN(CCC#N)C(=O)c1cc2ccc(-c3nccc(Nc4ccc(-c5cn[nH]c5)cc4)n3)cc2[nH]1 [TDI01442]
10 | 54 nM | CN(CC(F)(F)F)C(=O)c1cc2ccc(-c3nccc(Nc4ccc(-c5cn[nH]c5)cc4)n3)cc2[nH]1 [TDI01355, 6-(4-((4-(1H-pyrazol-4-yl)phenyl)amino)pyrimidin-2-yl)-N-methyl-N-(2,2,2-trifluoroethyl)-1H-indole-2-carboxamide]
11 | 333 nM | CN(C(=O)c1cc2ccc(-c3nccc(Nc4ccc(-c5cn[nH]c5)cc4)n3)cc2[nH]1)C1CCNC1 (centres unmarked) [TDI01345, 6-(4-((4-(1H-pyrazol-4-yl)phenyl)amino)pyrimidin-2-yl)-N-methyl-N-(pyrrolidin-3-yl)-1H-indole-2-carboxamide]
